Measured values from ChEMBL document CHEMBL1201862, “PubChem BioAssay data set” (2004).
Activity calls are given as the source filed them.

How the values were obtained:
[1] = Luminescence Cell-Based Dose Retest to Confirm Inhibitors of Cancer Stem Cells. [Related pubchem assays (depositor defined):AID2717, AID2721]; format: functional; conditions: Homo sapiens
[2] = inhibitors of PGC1a acetylation in cells, dose response, cell-based, cherry-picked samples (AID 720514); format: functional;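 further: potency may reflect raised or lowered acetylation signal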
[3] = P. falciparum 3D7-ScDHODH growth inhibitors, dose response, SYBR Green, dry powder samples (AID 1159570); format: functional, cell-based;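 further: parasite growth measured after 72 hours of compound exposure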
[4] = P. falciparum Dd2 growth inhibitors, dose response, SYBR Green, dry powder samples (AID 1159566); format: functional, cell-based;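 further: potency for growth inhibition with lower SYBR green DNA signal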
[5] = P. falciparum Dd2 growth inhibitors, dose response, SYBR Green, cherry-picked samples (AID 1159567); format: functional, cell-based
[6] = HepG2 cell cytotoxicity, dose response, cytotoxicity control, plate reader, dry powder samples (AID 1159569); format: functional, cell-based;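 further: inhibitor potency with signal falling toward the positive control level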
Paired box protein Pax-8 = Paired box protein Pax-8 (Homo sapiens, UniProt Q06710); experiment: inhibitors of PAX8-driven TPO luciferase reporter, dose response, RMG-I cells, cherry-pick (AID 687027); format: functional, cell-based;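 further: luciferase reporter driven by Pax8 target thyroperoxidase promoter measured by SteadyGlo luminescence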
[7] = P. falciparum ATP4 D1247Y mutant growth inhibitors, dose response, NITD609-resistant line, SYBR Green, dry powder (AID 1159571); format: functional, cell-based;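 further: parasites synchronized at ring stage by sorbitol before testing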
Prothrombin = Prothrombin (Homo sapiens, UniProt P00734); experiment: Thrombin 1536 HTS Dose Response Confirmation. [Related pubchem assays: 1046 (Thrombin 1536 HTS; hits were confirmed in this assay)]; format: functional
[8] = Vero cell cytotoxicity, dose response, cytotoxicity control for Vif-APOBEC3G degradation inhibitor project, Vero cells (AID 1117358); format: functional; conditions: Human immunodeficiency virus 1, Vero
Galanin receptor type 3 = biological target: T1, Galanin receptor type 3 (Homo sapiens, UniProt O60755); experiment: Fluorescence-based cell-based primary high throughput dose response assay to identify antagonists of the Galanin Receptor 3 (GalR3).; format: functional
T1 sequence (O60755 whole entry): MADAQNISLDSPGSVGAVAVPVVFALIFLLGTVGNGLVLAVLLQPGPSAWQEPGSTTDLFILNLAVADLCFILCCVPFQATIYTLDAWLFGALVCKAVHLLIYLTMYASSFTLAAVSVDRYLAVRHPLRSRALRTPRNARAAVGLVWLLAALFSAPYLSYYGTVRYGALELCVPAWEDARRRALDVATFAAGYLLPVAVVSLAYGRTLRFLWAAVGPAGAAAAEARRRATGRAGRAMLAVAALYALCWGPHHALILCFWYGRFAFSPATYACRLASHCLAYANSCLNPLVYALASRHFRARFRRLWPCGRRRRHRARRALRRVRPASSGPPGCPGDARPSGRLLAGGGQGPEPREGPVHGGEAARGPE

[9] = biological target: T2, COUP transcription factor 2 (Homo sapiens, UniProt P24468); experiment: Luminescence-based cell-based high throughput dose response assay to identify inhibitors of COUP-TFII (NR2F2).; format: functional;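 further: HEK293 cells transiently cotransfected with COUP-TFII expression vector and reporter; luciferase reporter luminescence driven by COUP-TFII from the pX2-168 reporter plasmid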
T2 sequence (P24468 whole entry): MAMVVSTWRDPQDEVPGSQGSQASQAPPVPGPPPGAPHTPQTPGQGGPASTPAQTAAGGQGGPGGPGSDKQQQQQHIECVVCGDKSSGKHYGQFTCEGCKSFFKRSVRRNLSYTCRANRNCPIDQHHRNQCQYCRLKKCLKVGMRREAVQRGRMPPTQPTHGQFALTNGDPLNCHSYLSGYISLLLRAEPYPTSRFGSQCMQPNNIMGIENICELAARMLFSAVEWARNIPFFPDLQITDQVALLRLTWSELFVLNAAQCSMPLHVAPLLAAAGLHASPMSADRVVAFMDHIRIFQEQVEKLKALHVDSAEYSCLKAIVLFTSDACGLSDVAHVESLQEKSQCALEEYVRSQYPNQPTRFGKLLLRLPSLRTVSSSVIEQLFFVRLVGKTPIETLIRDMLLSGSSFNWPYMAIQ

cells = format: functional, cell-based; conditions: HEK-CNG
Cytochrome P450 2C9 = Cytochrome P450 2C9 (Homo sapiens, UniProt P11712); conditions: Potency
[10] = biological target: Potassium voltage-gated channel subfamily KQT member 2 (Rattus norvegicus, UniProt O88943, W236L); experiment: KCNQ2 channel potentiators, dose response, mechanism study for KCNQ2 potentiator project, cell-based, automated electrophysiology (AID 2603); format: functional
Protein RecA = biological target: T3, Protein RecA (Mycobacterium tuberculosis, UniProt P9WHJ3); experiment: Fluorescence Cell-Free Homogeneous Dose Retest to Identify Inhibitors of RecA-Intein Splicing Activity. [Related pubchem assays (depositor defined):AID2097, AID2223, AID489010, AID492950]; format: functional
T3 sequence (P9WHJ3 whole entry): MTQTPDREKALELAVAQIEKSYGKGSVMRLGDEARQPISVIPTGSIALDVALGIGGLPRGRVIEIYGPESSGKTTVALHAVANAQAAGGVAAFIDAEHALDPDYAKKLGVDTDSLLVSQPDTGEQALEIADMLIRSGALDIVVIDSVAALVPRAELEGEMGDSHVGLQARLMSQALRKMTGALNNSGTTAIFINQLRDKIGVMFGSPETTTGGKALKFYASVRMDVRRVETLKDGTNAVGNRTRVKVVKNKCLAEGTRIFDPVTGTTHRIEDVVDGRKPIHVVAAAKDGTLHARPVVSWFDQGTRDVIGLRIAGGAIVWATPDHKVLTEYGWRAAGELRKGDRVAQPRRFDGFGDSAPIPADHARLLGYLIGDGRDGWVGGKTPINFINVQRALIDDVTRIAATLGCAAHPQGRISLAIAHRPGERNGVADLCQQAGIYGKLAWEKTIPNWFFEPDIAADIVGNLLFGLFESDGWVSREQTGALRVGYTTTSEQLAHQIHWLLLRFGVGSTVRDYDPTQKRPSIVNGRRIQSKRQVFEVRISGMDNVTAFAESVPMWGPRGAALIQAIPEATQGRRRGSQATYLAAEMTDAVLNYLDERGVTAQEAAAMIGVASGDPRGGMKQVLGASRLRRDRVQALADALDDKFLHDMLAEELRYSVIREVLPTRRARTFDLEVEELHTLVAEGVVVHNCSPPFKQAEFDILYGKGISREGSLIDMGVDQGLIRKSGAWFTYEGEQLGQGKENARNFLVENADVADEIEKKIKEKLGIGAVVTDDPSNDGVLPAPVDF

[11] = biological target: T4, Replicative DNA helicase DnaB (Mycobacterium tuberculosis, UniProt P9WMR3); experiment: DnaB intein splicing inhibitors, dose response, biochemical, cell-free fluorescence (AID 449749); format: functional
T4 sequence (P9WMR3 whole entry): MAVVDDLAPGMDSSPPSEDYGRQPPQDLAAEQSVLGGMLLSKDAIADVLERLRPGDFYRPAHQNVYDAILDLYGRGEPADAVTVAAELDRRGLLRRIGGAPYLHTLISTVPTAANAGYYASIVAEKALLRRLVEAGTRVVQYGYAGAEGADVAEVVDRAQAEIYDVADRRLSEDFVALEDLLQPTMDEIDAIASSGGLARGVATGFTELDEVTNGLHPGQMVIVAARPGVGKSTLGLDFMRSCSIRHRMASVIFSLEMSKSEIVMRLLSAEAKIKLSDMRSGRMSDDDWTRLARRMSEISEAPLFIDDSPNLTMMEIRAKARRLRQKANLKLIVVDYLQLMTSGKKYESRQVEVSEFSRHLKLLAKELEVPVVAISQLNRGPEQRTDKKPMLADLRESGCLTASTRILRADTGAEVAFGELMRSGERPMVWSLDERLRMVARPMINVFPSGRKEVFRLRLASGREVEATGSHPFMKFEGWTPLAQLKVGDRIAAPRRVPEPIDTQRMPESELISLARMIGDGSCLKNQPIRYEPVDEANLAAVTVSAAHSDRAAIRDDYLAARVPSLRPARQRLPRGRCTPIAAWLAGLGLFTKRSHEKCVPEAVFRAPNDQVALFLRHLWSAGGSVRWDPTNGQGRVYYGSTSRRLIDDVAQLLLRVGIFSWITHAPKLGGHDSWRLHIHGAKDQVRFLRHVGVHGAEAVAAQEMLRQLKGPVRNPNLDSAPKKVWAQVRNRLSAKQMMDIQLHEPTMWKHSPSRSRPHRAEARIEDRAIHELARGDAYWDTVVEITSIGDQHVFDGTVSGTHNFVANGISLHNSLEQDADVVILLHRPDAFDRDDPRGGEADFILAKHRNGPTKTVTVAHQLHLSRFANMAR

fMet-Leu-Phe receptor = biological target: T5, fMet-Leu-Phe receptor (Homo sapiens, UniProt P21462); experiment: FPR ligands, dose response (AID 519); format: functional
T5 sequence (P21462 whole entry): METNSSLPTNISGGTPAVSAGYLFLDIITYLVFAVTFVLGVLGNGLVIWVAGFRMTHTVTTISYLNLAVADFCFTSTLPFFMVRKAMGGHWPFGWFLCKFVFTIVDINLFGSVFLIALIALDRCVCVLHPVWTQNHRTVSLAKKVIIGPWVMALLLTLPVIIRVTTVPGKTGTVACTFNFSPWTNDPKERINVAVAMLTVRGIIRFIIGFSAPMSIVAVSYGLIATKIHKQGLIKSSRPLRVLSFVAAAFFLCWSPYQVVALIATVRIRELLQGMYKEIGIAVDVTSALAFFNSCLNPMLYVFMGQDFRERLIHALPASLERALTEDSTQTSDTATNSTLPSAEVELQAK

Cytochrome P450 3A4 = Cytochrome P450 3A4 (Homo sapiens, UniProt P08684);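 further: CYP3A4 tested as one member of a cytochrome P450 panel screen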
INS1 = experiment: beta cell apoptosis inhibitors, cytokine rescue, dose response, luminescence, retest (AID 449756); format: functional, cell-based; conditions: Rattus norvegicus;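 further: cell death triggered by IL-1 beta plus TNF-alpha plus IFN-gamma mixture; protective hits raise ATP signal compared with cytokine alone wells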
Coagulation factor XII = biological target: T6, Coagulation factor XII (Homo sapiens, UniProt P00748); format: functional;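 further: activated factor XIIa alpha cleaving a fluorogenic AMC peptide substrate; inhibitor potency from loss of enzyme activity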
T6 sequence (P00748 whole entry): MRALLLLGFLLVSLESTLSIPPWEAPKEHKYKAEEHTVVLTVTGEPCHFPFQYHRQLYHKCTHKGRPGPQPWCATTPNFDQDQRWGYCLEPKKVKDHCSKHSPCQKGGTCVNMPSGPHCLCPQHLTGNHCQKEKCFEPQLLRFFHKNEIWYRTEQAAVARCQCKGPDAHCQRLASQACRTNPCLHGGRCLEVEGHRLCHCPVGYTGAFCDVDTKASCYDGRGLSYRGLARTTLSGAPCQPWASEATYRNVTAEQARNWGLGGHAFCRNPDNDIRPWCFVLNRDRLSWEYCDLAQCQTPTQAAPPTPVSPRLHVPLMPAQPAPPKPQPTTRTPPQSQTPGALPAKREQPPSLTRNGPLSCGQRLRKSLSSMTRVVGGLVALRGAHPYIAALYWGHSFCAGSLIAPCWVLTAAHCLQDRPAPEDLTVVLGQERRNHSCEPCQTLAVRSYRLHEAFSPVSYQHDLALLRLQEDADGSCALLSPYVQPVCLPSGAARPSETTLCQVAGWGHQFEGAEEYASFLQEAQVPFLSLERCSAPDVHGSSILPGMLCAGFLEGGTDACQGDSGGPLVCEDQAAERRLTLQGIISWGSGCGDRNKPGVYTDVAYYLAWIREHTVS

Large T antigen = Large T antigen (Simian virus 40, UniProt P03070); format: functional, Betapolyomavirus macacae;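 further: Confirmatory-stage PubChem screen for compounds that inhibit SV40 T antigen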
[12] = NIH:OVCAR-3 ovarian cancer cell cytotoxicity, dose response, PAX8 inhibitor project, plate reader, dry powder samples (AID 743044); format: functional, cell-based
[13] = cytotoxicity in OVCAR8 ovarian cancer cells, dose response, PAX8 project, cell-based, plate reader, dry powder samples (AID 743197); format: functional; conditions: OVCAR-8

Paired box protein Pax-8, sequence (Q06710 whole entry): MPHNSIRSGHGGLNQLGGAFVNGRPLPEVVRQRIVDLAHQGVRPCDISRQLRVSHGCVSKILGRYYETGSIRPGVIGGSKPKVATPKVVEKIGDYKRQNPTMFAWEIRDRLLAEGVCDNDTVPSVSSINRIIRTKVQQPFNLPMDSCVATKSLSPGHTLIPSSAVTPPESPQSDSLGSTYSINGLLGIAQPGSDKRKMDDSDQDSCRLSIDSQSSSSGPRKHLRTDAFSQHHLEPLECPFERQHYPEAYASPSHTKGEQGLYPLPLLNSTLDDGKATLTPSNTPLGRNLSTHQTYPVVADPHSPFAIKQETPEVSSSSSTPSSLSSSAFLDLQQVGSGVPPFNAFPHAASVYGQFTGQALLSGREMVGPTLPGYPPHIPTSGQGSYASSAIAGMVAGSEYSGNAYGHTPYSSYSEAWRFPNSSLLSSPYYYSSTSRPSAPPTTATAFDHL
Cytochrome P450 2C9, sequence (P11712 whole entry): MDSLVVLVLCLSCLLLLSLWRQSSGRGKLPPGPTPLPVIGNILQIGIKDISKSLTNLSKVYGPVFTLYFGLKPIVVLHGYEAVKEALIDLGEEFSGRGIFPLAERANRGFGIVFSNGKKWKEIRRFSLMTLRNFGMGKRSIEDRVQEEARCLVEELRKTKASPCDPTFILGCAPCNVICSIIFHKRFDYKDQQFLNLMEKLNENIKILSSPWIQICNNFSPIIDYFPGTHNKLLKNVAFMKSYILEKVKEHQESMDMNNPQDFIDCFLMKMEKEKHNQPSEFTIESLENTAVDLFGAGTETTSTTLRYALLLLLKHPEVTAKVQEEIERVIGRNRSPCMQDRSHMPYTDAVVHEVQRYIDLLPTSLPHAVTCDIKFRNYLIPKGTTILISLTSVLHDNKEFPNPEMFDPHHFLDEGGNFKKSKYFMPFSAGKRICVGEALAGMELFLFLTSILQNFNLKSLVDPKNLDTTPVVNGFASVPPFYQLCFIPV
Large T antigen, sequence (P03070 whole entry): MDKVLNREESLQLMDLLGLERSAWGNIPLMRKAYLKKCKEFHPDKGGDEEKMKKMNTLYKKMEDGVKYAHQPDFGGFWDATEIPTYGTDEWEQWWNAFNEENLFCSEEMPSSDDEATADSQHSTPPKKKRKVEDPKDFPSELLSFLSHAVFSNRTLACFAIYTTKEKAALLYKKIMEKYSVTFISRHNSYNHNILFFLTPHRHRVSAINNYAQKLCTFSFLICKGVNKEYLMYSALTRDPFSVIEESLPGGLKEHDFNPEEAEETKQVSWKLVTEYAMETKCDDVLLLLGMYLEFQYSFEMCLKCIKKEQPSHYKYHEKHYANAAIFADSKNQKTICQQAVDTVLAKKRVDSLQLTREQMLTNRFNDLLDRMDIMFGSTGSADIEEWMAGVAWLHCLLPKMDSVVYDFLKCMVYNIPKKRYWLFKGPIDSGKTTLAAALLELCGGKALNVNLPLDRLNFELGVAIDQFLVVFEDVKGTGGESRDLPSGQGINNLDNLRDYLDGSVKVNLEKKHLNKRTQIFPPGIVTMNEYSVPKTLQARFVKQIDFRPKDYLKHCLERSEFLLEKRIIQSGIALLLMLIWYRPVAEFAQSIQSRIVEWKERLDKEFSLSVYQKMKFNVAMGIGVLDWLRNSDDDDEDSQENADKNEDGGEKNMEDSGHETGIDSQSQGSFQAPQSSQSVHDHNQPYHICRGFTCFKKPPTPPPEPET
Potassium voltage-gated channel subfamily KQT member 2, sequence (O88943 whole entry W236L): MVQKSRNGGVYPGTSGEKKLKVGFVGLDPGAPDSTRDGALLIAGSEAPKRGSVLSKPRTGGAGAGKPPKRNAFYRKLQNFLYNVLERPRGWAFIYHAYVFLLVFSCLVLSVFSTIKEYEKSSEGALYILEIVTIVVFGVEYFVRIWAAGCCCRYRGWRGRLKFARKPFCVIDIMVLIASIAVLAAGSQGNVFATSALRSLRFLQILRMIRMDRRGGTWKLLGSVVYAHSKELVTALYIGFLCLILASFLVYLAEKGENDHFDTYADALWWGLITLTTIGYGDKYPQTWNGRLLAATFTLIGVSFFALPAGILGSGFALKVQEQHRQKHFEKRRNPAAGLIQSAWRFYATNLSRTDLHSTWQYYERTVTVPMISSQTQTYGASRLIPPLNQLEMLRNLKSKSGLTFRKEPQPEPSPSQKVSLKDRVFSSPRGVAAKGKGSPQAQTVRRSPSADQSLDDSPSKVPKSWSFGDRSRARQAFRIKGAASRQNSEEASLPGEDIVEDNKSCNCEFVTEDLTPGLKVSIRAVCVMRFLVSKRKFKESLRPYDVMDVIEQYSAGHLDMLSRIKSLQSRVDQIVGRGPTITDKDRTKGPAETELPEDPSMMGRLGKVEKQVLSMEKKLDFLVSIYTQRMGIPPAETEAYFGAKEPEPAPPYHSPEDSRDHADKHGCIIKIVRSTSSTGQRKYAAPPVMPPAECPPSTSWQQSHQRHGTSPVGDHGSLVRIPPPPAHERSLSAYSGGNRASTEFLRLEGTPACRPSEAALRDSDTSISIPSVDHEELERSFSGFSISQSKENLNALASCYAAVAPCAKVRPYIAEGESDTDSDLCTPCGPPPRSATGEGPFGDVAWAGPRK
Cytochrome P450 3A4, sequence (P08684 whole entry): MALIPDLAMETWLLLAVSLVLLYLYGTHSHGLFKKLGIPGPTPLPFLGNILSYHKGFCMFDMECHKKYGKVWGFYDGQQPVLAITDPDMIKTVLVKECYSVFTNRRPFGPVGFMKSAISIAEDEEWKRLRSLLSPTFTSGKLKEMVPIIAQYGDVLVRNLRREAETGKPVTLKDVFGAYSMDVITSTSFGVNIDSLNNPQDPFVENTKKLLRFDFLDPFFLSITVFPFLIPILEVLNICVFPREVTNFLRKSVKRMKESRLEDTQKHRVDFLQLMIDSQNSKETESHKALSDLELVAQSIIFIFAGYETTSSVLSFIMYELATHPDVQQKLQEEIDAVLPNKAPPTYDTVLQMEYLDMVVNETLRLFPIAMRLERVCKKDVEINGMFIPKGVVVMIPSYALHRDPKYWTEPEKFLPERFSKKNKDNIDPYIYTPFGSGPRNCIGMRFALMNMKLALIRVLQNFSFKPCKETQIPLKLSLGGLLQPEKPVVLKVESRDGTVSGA

O=C(Nc1ccc(N2CCN(Cc3ccccc3F)CC2)cc1)c1ccc([N+](=O)[O-])o1
AC50 [1]: 1.29 µM (active) | AC50 [2]: 1.58 µM (active)

C[C@H](CO)N1C[C@H](C)[C@@H](CN(C)Cc2ccc(Oc3ccccc3)cc2)OCc2ccccc2-c2c(n(C)c3ccccc23)C1=O
AC50 [3]: 3.28 µM (active) | AC50 [4]: 2.58 µM (active) | AC50 [5]: 2.58 µM (active) | AC50 [6]: 20.3 µM (active) | AC50 (Paired box protein Pax-8): 17.1 µM (active) | AC50 [7]: 2.82 µM (active)

ClC1(Cl)CC1CSc1nc[nH]n1 (stereo unspecified)
IC50 (Prothrombin): > 50 µM (not active)

CSCC[C@@H](Nc1nc(-c2ccccc2)nc2c1oc1ccccc12)C(=O)O
CC50 [8]: > 40 µM (active)

CC(=O)c1ccc(N2CCN(C(S)=Nc3ccc(Oc4ccccc4)cc3)CC2)cc1
IC50 (Galanin receptor type 3): 1.23 µM (active) | IC50 [9]: 8.27 µM (active) | EC50 (cells): > 29.9 µM (inactive)

C=CS(=O)(=O)N(Cc1ccccc1Br)[C@H](CO)Cc1ccccc1
AC50 [2]: 1.05 µM (active)

COc1ccc(C#CC2C=CC(Oc3cc(C)cc(C)c3)C(CO)O2)cc1 (stereo unspecified)
AC50 (Cytochrome P450 2C9): 2 µM (inconclusive)

CC(C)c1nnc(NC(=O)c2nc(S(=O)(=O)Cc3ccccc3F)ncc2Cl)s1
EC50 [10]: 8.4 µM (active) | EC50 (Protein RecA): 3.16 µM (active) | AC50 [11]: 4.25 µM (active)

COc1ccc(-c2ccccc2[C@H]2[C@@H](C#N)N(C(=O)NC3CCCC3)[C@H]2CO)cc1
AC50 [3]: 1.21 µM (active) | AC50 [4]: 1.27 µM (active) | AC50 [5]: 1.9 µM (active) | AC50 [6]: 65.8 µM (active) | AC50 [7]: 1.72 µM (active)

CCC(=O)N=C(Nc1cccc(OC)c1)Nc1nc(C)cc(C)n1
IC50 (Prothrombin): 0.268 µM (active)

CCC(NC(=O)Nc1cc(OC)c(OC)c(OC)c1)(C(F)(F)F)C(F)(F)F
Ki (fMet-Leu-Phe receptor): > 66.7 µM (inactive) | AC50 (Cytochrome P450 3A4): 15.8 µM (inconclusive)

O=C(NCCc1cn2ccccc2n1)c1cc(COc2ccc3ncccc3c2)on1
IC50 [9]: 8.53 µM (active) | AC50 (INS1): 6 µM (active)

CCCCC#CC1C=CC(Oc2ccc(C(=O)OC)cc2)C(COC(=O)OCC)O1 (stereo unspecified)
AC50 (Cytochrome P450 2C9): 3.16 µM (inconclusive)

CCc1nnc(NC(=O)CCN(c2ccc(C)cc2)S(=O)(=O)c2ccccc2)s1
IC50 (Coagulation factor XII): > 50 µM (inactive) | IC50 (Prothrombin): > 50 µM (not active)

CCOc1cc(N2CCOCC2)c(OCC)cc1NS(=O)(=O)c1ccc(Cl)s1
IC50 (Large T antigen): 61.4 µM (active) | CC50 [8]: > 40 µM (active)

C[C@@H]1CCCCO[C@@H](CN(C)C(=O)Nc2cccc3ccccc23)[C@H](C)CN([C@H](C)CO)C(=O)c2cc(NS(=O)(=O)c3ccc(Cl)cc3)ccc2O1
AC50 [12]: 36.6 µM (active) | AC50 (Paired box protein Pax-8): 5.29 µM (active) | AC50 [13]: 32.4 µM (active)
